Like-named read-outs stand apart in the source and are kept apart here. A value given as a limit tells only on which side of the number the result lay.

Results on two compounds are retold here after patent publication US7981875B2, “2″ oxo-voruscharin and derivatives thereof” (priority 2002, dated 2011).

Data set [1] deals with A549. Briefly: MTT test, overall cell growth. The data set is classed as cell-based, human. Particulars: 72 hours of incubation. As for the experimental part: (§1) In order to characterize the in vitro activities of the compounds according to the invention, MTT tests were carried out. The MTT test, which is a well-known test in the art, is an indirect technique that rapidly measures, i.e. within 5 days, the effect of a given product on the overall cell growth. This test measures the number of metabolically active living cells that are able to transform the MTT product (3-(4,5-dimethylthiazol-2-yl)-2,5 diphenyl tetrazolium bromide), having a yellowish color, to the blue product formazan dye by mitochondrial reduction. The amount of formazan obtained at the end of the experiment is measured with a spectrophotometer and is directly proportional to the number of living cells. Determination of the optical density enables a quantitative measurement of the effect of the investigated compounds as compared to the control condition (untreated cells) and to compare it to other reference compound. In the following examples different compounds according to the invention were tested and compared to the reference compound being uscharin.
(§2) Six human cancer cell lines, described in Table C, were tested in the presence of compounds according to the invention. These cell lines covered four histological cancer types, being Glioma, colon, lung and bladder cancer. The cells were allowed to grow in 96-well micro wells with a flat bottom with an amount of 100 μl of cell suspension per well in reason to 4000 cells/well depending on cell type. Each cell line was seeded in its own cell culture medium (Table C).
(§3) After a 24-hour period of incubation at 37° C., the culture medium is replaced by 100 μl of fresh medium in which the compound to be tested has been dissolved at different required concentrations. Different compounds were tested at 10^−9 M, 5×10^−9 M, 10^−8 M, 5×10^−8 M, 10^−7 M, 5×10^−7 M, 10^−6 M, 5×10^−6 M et 10^−5 M. Each experimental condition is carried out in hexaplicate. The compounds tested are 2″ oxo-voruscharin, and compounds B, C, D, E, H and I represented in Table B above.
(§4) After 72 hours of incubation at 37° C. with the compound (experimental conditions) or without the compound (control condition), the medium was replaced by 100 μl MTT at the concentration of 1 mg/ml dissolved in RPMI. The micro wells were subsequently incubated during 3 hours at 37° C. and centrifuged at 400 g during 10 minutes. The MTT was removed and formazan crystals formed, were dissolved in 100 μl DMSO. The micro wells were shaken for 5 minutes and read on a spectrophotometer at the wavelengths of 570 nm corresponding to the maximum formazan absorbance wavelength, and of 630 nm, which is the background noise wavelength.
(§5) For each experimental condition, the mean OD associated with the SEM (standard error of the mean) for each condition (6 wells) was calculated. The percentage of remaining living cells in comparison with the control was calculated. Results of these experiments are represented in FIGS. 2 to 8.

Data set [2] relates to HCT-15. Briefly: MTT test, overall cell growth. The data set is classed as cell-based, human. As for the experimental part:
as §1, §2, §3, §4, §5

Data set [3] deals with Hs683. Briefly: MTT test, overall cell growth. The data set is classed as cell-based, human. On the procedure: as §1, §2, §3, §4, §5
In data set [4] the test system is J82. Briefly: MTT test, overall cell growth. The data set is classed as cell-based, human. As for the experimental part:
as §1, §2, §3, §4, §5

The test system of data set [5] is LoVo. Briefly: MTT test, overall cell growth. The data set is classed as cell-based, human. Particulars: 72 hours of incubation. As for the experimental part:
as §1, §2, §3, §4, §5

Data set [6] has as its system U-373 MG. Briefly: MTT test, overall cell growth. The settings on record: U-373, MTT, 72 hours of incubation. The data set is classed as cell-based, human. On the procedure: as §1, §2, §3, §4, §5
Data set [7] is described as follows: Maximum Tolerated Dose in healthy mice. The data set is classed as in vivo. Particulars: single administration in mice, healthy animals, 14 days post-injection. On the procedure: The Maximum Tolerated Dose (MTD) of a given drug is defined as the maximum amount of a drug which can be administered acutely (i.e. in one i.p., i.v., s.c. or per os single dose) to healthy animals, i.e. animals not grafted with tumors. The survival times and weights of the animals are recorded up to 14 days post-injection. Five different doses of each drug are used for the determination of the MTD index. When the MTD index is higher than 160 mg/kg (i.p. administration) the drug is usually considered to be non-toxic, and the highest dose administered to tumor-bearing mice is MTD/2=80 mg/kg. Each experimental group was composed of 3 mice for the determination of the MTD index.

Data set [8] concerns Capan-2 orthotopic xenograft. Briefly: Orthotopic pancreatic cancer model. The data set is classed as in vivo, nude mice. On the procedure:
Three types of results were obtained with in vivo anti-tumor pharmacology: 1) the cumulative toxicity of chemotherapeutic administrations through recording the weights of the tumor-bearing mice during treatment, 2) the actual anti-tumor effect exerted at tumor growth level. If the tumor models are grafted subcutaneously (s.c.), tumor size is measured three times a week by means of a caliper and expressed as an area (mm^2) by multiplying together the two largest perpendicular diameters, and 3) the gain in survival for the animals treated, which is evaluated by means of the T/C index. This index is the ratio between the median survival time of the group of treated animals (T) and that of the control group. The drug is considered to be active if the T/C value is above 130% (P<0.05), and toxic for a value lower than 70%.
In addition to the xenografted models of Example 6, the antitumoral activity of compound B was evaluated in orthotopic xenografted models PC3 (Prostate) and Capan2 (Pancreas).
Compound B was further evaluated on in vivo orthotopic Capan-2 pancreatic cancer model by measurement of T/C index, as described in Example 6 of the specification.

As to `CC1CC2(NC(=O)CS2)C2(O)OC3CC4(CO)C(CCC5C4CCC4(C)C(C6=CC(=O)OC6)CCC54O)CC3OC2O1` (stereo not shown) [Compound B], the half-inhibitory concentration (IC50) is 10 nM in data set [1]; 10 to 50 nM in data set [2] (HCT-15, MTT, 72 hours of incubation, read-out: IC50 value); 1000 to 5000 nM in data set [3] (Hs683, MTT, 72 hours of incubation, read-out: IC50 value); 5000 to 10000 nM in data set [4] (J82, MTT, 72 hours of incubation, read-out: IC50 value); 1 to 5 nM in data set [5]; 10 to 50 nM in data set [6]. Moreover, the MTD index in data set [7] was 80 mg/kg. The T/C value came to 129% in data set [8] (i.p. DMT/4 (20 mg/kg), 3ix5w, from 21st day post-graft) and 127% in data set [8] (i.p. DMT/8 (10 mg/kb), 5ix8w, from 14th day post-graft).
Consider `CC1CC2(NC(=O)CS2)C2(O)OC3CC4(C=O)C(CCC5C4CCC4(C)C(C6=CC(=O)OC6)CCC54O)CC3OC2O1` (stereo not shown) [2″oxo-voruscharin, 2″ oxo-voruscharin], for which the IC50 in data set [1] (Homo sapiens) was 10 to 50 nM; in data set [2] (Homo sapiens, HCT-15, MTT, 72 hours of incubation, read-out: IC50 value), 10 to 50 nM; in data set [2] (Homo sapiens, HCT-15, Table E, concentration used for flow cytometry, chosen in accordance with MTT results, read-out: IC50) it was 12 nM; in data set [3] (Homo sapiens, Hs 683, Hs683, MTT, 72 hours of incubation, read-out: IC50 value), 1 to 5 nM; in data set [3] (Homo sapiens, Hs 683, Hs683, Table E, concentration used for flow cytometry, chosen in accordance with MTT results, read-out: IC50), 170 nM; in data set [4] (Homo sapiens, J82, MTT, 72 hours of incubation, read-out: IC50 value), more than 10000 nM. Besides, the half-maximal inhibitory concentration (IC50) in data set [4] (Homo sapiens, J82, Table E, concentration used for flow cytometry, chosen in accordance with MTT results, read-out: IC50) is 4100 nM; in data set [5] (Homo sapiens), 5 to 10 nM; in data set [6] (Homo sapiens, U373 MG) it was 10 to 50 nM. Also, the IC30 in data set [2] (HCT-15, Table E, concentration which kills 30% of the cell population) turned out to be 4.1 nM; in data set [3] (Hs683, Table E, concentration which kills 30% of the cell population), 8.3 nM; in data set [4] (J82, Table E, concentration which kills 30% of the cell population), 1700 nM. The MTD index in data set [7] is on record as 20 mg/kg.
